According to patent publication US9802899B2, “Heterocyclic compounds as pesticides” (BAYER CROPSCIENCE AG, priority 2012, dated 2017):

Test: Determination of the log P values by HPLC (formic acid method)
Assay type: physicochemical
Settings: reversed-phase column (C 18), acidic range (pH 3.4), 55° C.
Experimental: 1) Description of Method for Determination of the Log P Values (Formic Acid Method)
Eluents for determination in the acidic range (pH 3.4):
Eluent A: acetonitrile+1 ml of formic acid/liter. Eluent B: water+0.9 ml of formic acid/liter.
The lambda max values were determined in the maxima of the chromatographic signals using the UV spectra from 200 nm to 400 nm.

log P	SMILES
2.80	N#CCN(C(=O)c1ccccc1C(F)(F)F)c1ccn(-c2ncc(F)cc2F)n1 [Compound I-1-472]
2.62	O=C(Nc1nn(-c2ncc(F)cc2F)cc1Cl)c1ccccc1C(F)(F)F [Compound I-1-473]
2.61	O=C(Nc1nn(-c2ncc(F)cc2F)cc1Br)c1ccccc1C(F)(F)F [Compound I-1-474]
2.63	O=C(Nc1nn(-c2ncc(F)cc2F)cc1[N+](=O)[O-])c1ccccc1C(F)(F)F [Compound I-1-475]
2.72	O=C(Nc1ccn(-c2ncc(F)cc2F)n1)c1cccc(Cl)c1Cl [Compound I-1-476]
4.47	O=C(c1cccc(Cl)c1Cl)N(C(=O)c1cccc(Cl)c1Cl)c1ccn(-c2ncc(F)cc2F)n1 [Compound I-1-477]
1.88	Cc1nc(C)c(C(=O)Nc2ccn(-c3ncc(F)cc3F)n2)s1 [Compound I-1-478]
2.51	O=C(Nc1ccn(-c2ncc(F)cc2F)n1)c1c(Cl)cccc1Cl [Compound I-1-479]
2.51	Cc1cccc(C)c1C(=O)Nc1ccn(-c2ncc(F)cc2F)n1 [Compound I-1-480]
2.22	CC(=O)c1ccccc1C(=O)Nc1ccn(-c2ncc(F)cc2F)n1 [Compound I-1-481]
1.77	O=C(Nc1ccn(-c2ncc(F)cc2F)n1)c1cccnc1Br [Compound I-1-482]
2.51	COc1ccc(Cl)c(C(=O)Nc2ccn(-c3ncc(F)cc3F)n2)c1 [Compound I-1-483]
2.38	O=C(Nc1ccn(-c2ncc(F)cc2F)n1)c1c(F)cccc1Cl [Compound I-1-484]
1.89	O=C(Nc1ccn(-c2ncc(F)cc2F)n1)c1nccnc1Cl [Compound I-1-485]
2.68	O=C(Nc1ccn(-c2ncc(F)cc2F)n1)c1ccccc1C1CC1 [Compound I-1-486]
2.69	CCc1cccc(F)c1C(=O)Nc1ccn(-c2ncc(F)cc2F)n1 [Compound I-1-487]
2.69	CCc1ccccc1C(=O)Nc1ccn(-c2ncc(F)cc2F)n1 [Compound I-1-488]
2.42	CCc1nccnc1C(=O)Nc1ccn(-c2ncc(F)cc2F)n1 [Compound I-1-489]
1.29	CCc1ncccc1C(=O)Nc1ccn(-c2ncc(F)cc2F)n1 [Compound I-1-490]
2.57	O=C(Nc1ccn(-c2ncc(F)cc2F)n1)c1c(F)cccc1C(F)(F)F [Compound I-1-491]
2.56	O=C(Nc1ccn(-c2ncc(F)cc2F)n1)c1c(F)cccc1I [Compound I-1-492]

log P	SMILES
2.31	O=C(Nc1ccn(-c2ncc(F)cc2F)n1)c1ccccc1F [Compound I-1-493]
2.53	O=C(Nc1ccn(-c2ncc(F)cc2F)n1)c1ccsc1I [Compound I-1-494]
1.79	O=C(Nc1ccn(-c2ncc(F)cc2F)n1)c1cccnc1I [Compound I-1-495]
2.55	COc1ccccc1C(=O)Nc1ccn(-c2ncc(F)cc2F)n1 [Compound I-1-496]
2.35	Cc1nc(C(F)(F)F)c(C(=O)Nc2ccn(-c3ncc(F)cc3F)n2)s1 [Compound I-1-497]
2.17	CC1=C(C(=O)Nc2ccn(-c3ncc(F)cc3F)n2)SCCO1 [Compound I-1-498]
2.36	Cc1ccccc1C(=O)Nc1ccn(-c2ncc(F)cc2F)n1 [Compound I-1-499]
2.06	Cn1nc(C(F)F)c(C(=O)Nc2ccn(-c3ncc(F)cc3F)n2)c1F [Compound I-1-500]
2.20	O=C(Nc1ccn(-c2ncc(F)cc2F)n1)c1nccnc1C(F)(F)F [Compound I-1-501]
2.38	O=C(Nc1ccn(-c2ncc(F)cc2F)n1)c1ncccc1C(F)(F)F [Compound I-1-502]
2.61	O=C(Nc1ccn(-c2ncc(F)cc2F)n1)c1sccc1Cl [Compound I-1-503]
2.16	O=C(Nc1ccn(-c2ncc(F)cc2F)n1)c1ncccc1Cl [Compound I-1-504]
1.50	CCc1nnccc1C(=O)Nc1ccn(-c2ncc(F)cc2F)n1 [Compound I-1-505]
2.65	O=C(Nc1ccn(-c2ncc(F)cc2F)n1)c1cc(F)ccc1C(F)(F)F [Compound I-1-506]
2.69	O=C(Nc1ccn(-c2ncc(F)cc2F)n1)c1sccc1I [Compound I-1-507]
3.02	CC(C)Cc1nn(C)c(C(=O)Nc2ccn(-c3ncc(F)cc3F)n2)c1[N+](=O)[O-] [Compound I-1-508]
2.72	CC(C)c1nn(C)c(C(=O)Nc2ccn(-c3ncc(F)cc3F)n2)c1[N+](=O)[O-] [Compound I-1-509]
2.38	Cc1ccsc1C(=O)Nc1ccn(-c2ncc(F)cc2F)n1 [Compound I-1-510]
2.61	Cc1noc(C(F)(F)F)c1C(=O)Nc1ccn(-c2ncc(F)cc2F)n1 [Compound I-1-511]
3.11	Cn1nc(C(C)(C)C)c([N+](=O)[O-])c1C(=O)Nc1ccn(-c2ncc(F)cc2F)n1 [Compound I-1-512]
3.89	Cn1nc(C(C)(C)C)c(Cl)c1C(=O)Nc1ccn(-c2ncc(F)cc2F)n1 [Compound I-1-513]

log P	SMILES
2.13	Cc1nn(C)c(C(=O)Nc2ccn(-c3ncc(F)cc3F)n2)c1C(F)F [Compound I-1-514]
2.00	O=C(Nc1ccn(-c2ncc(F)cc2F)n1)c1cnccc1C(F)(F)F [Compound I-1-515]
2.98	O=C(Nc1ccn(-c2ncc(F)cc2F)n1)c1c(C(F)(F)F)cc(F)c(F)c1F [Compound I-1-516]
2.53	Cc1nn(C)c(C(=O)Nc2ccn(-c3ncc(F)cc3F)n2)c1Br [Compound I-1-517]
2.61	CCn1ncc(Br)c1C(=O)Nc1ccn(-c2ncc(F)cc2F)n1 [Compound I-1-518]
2.93	CCn1nc(C)c(Br)c1C(=O)Nc1ccn(-c2ncc(F)cc2F)n1 [Compound I-1-519]
2.15	Cn1cc(Br)c(C(=O)Nc2ccn(-c3ncc(F)cc3F)n2)n1 [Compound I-1-520]
2.23	Cn1ncc(Br)c1C(=O)Nc1ccn(-c2ncc(F)cc2F)n1 [Compound I-1-521]
3.19	Cn1nc(C(F)(F)F)c(Br)c1C(=O)Nc1ccn(-c2ncc(F)cc2F)n1 [Compound I-1-522]
3.18	Cc1oc(C)c(C(=O)Nc2ccn(-c3ncc(F)cc3F)n2)c1Br [Compound I-1-523]
2.30	O=C(Nc1ccn(-c2ncc(F)cc2F)n1)c1cscc1Br [Compound I-1-524]
2.84	Cc1nn(C(F)F)c(C(=O)Nc2ccn(-c3ncc(F)cc3F)n2)c1Cl [Compound I-1-525]
2.42	CCn1ncc(Cl)c1C(=O)Nc1ccn(-c2ncc(F)cc2F)n1 [Compound I-1-526]
2.93	CCn1nc(C)c(Cl)c1C(=O)Nc1ccn(-c2ncc(F)cc2F)n1 [Compound I-1-527]
3.11	CC(C)n1nc([N+](=O)[O-])c(Cl)c1C(=O)Nc1ccn(-c2ncc(F)cc2F)n1 [Compound I-1-528]
2.23	Cn1ncc(Cl)c1C(=O)Nc1ccn(-c2ncc(F)cc2F)n1 [Compound I-1-529]
2.50	Cn1nc([N+](=O)[O-])c(Cl)c1C(=O)Nc1ccn(-c2ncc(F)cc2F)n1 [Compound I-1-530]
3.42	CCCc1nn(C)c(C(=O)Nc2ccn(-c3ncc(F)cc3F)n2)c1Cl [Compound I-1-531]
3.09	CCCc1c(Cl)c(C(=O)Nc2ccn(-c3ncc(F)cc3F)n2)nn1C [Compound I-1-532]
2.85	CCCn1cc(Cl)c(C(=O)Nc2ccn(-c3ncc(F)cc3F)n2)n1 [Compound I-1-533]
2.98	CCc1nn(C)c(C(=O)Nc2ccn(-c3ncc(F)cc3F)n2)c1Cl [Compound I-1-534]

log P	SMILES
3.19	Cn1nc(C(F)(F)C(F)(F)F)c(C#N)c1C(=O)Nc1ccn(-c2ncc(F)cc2F)n1 [Compound I-1-535]
2.76	Cn1nc(C(F)(F)F)c(C#N)c1C(=O)Nc1ccn(-c2ncc(F)cc2F)n1 [Compound I-1-536]
2.45	O=C(Nc1ccn(-c2ncc(F)cc2F)n1)c1snnc1C1CC1 [Compound I-1-537]
2.03	Cn1ncc(F)c1C(=O)Nc1ccn(-c2ncc(F)cc2F)n1 [Compound I-1-538]
3.28	CC(C)Cn1ncc(I)c1C(=O)Nc1ccn(-c2ncc(F)cc2F)n1 [Compound I-1-539]
2.20	Cn1ncc(I)c1C(=O)Nc1ccn(-c2ncc(F)cc2F)n1 [Compound I-1-540]
2.93	CCCn1ncc(I)c1C(=O)Nc1ccn(-c2ncc(F)cc2F)n1 [Compound I-1-541]
2.22	Cc1nonc1C(=O)Nc1ccn(-c2ncc(F)cc2F)n1 [Compound I-1-542]
2.00	Cc1cnoc1C(=O)Nc1ccn(-c2ncc(F)cc2F)n1 [Compound I-1-543]
1.29	Cn1cnnc1C(=O)Nc1ccn(-c2ncc(F)cc2F)n1 [Compound I-1-544]
1.92	O=C(Nc1ccn(-c2ncc(F)cc2F)n1)c1ncncc1Cl [Compound I-1-545]
2.15	Cc1snnc1C(=O)Nc1ccn(-c2ncc(F)cc2F)n1 [Compound I-1-546]
1.37	Cc1oncc1C(=O)Nc1ccn(-c2ncc(F)cc2F)n1 [Compound I-1-547]
2.10	CC1=C(C(=O)Nc2ccn(-c3ncc(F)cc3F)n2)CCCO1 [Compound I-1-548]
2.42	O=C(Nc1ccn(-c2ncccc2Br)n1)c1ccccc1C(F)(F)F [Compound I-1-549]
2.34	O=C(Nc1ccn(-c2ncccc2Br)n1)c1cccnc1C(F)(F)F [Compound I-1-550]
2.13	O=C(Nc1ccn(-c2ncccc2Br)n1)c1c(F)cccc1F [Compound I-1-551]
2.31	O=C(Nc1ccn(-c2ncccc2Br)n1)c1ccccc1Br [Compound I-1-552]
2.23	O=C(Nc1ccn(-c2ncccc2Br)n1)c1ccccc1Cl [Compound I-1-553]
